Patent publication US20240268379A1, “BIODEGRADABLE PVA/PVP HYDROGELS, USES AND PREPARATION THEREOF” (Bar-Ilan University, priority 2021, published 2024)

Assay: Thermal stability of thymol by TGA-MS
Format: physicochemical
Conditions: 20° C./min, nitrogen
Protocol: Thermal gravimetric analysis (TGA) was carried out using SETSYS, by Setaram. The released products during the measurements were obtained by using Hiden HPR-20 QIC mass spectrometer (TGA) coupled with mass spectroscopy (MS). The analysis was conducted to study the stability effect of the PVA/PVP hydrogel, under heat treatment, on thymol, entrapped in the hydrogel, relative to thymol pure form. The tested samples were heated from 30° C. up to 630° C. (20° C./min heat rate) under nitrogen inert atmosphere (20 ml/min nitrogen flow rate).

thymol loss end temperature: 130 °C | thymol loss start temperature: 70 °C
SMILES: Cc1ccc(C(C)C)c(O)c1 [pure thymol, thymol]
